Measurements reported in BindingDB's records for doi:10.1074/jbc.M113.533885 (University of Texas Southwestern Medical Center, 2014).

How the values were obtained:
[1] = target: T1, Heat shock protein HSP 90-alpha [1-236] (Homo sapiens, UniProt P07900); assay: Isothermal Titration Calorimetry (ITC); conditions: pH 7.5; 15 °C
T1 construct: 1-236
Experimental: (§1) The PDK2 or Hsp90 N-terminal domain protein was dialyzed against 1 liter of thedialysis buffer containing 50 mM Tris-Cl, pH 7.5, 50 mM KCl, 1 mM MgCl2, and 0.5 mM β-mercaptoethanol.

[2] = target: T2, [Pyruvate dehydrogenase (acetyl-transferring)] kinase isozyme 2, mitochondrial (Homo sapiens, UniProt Q15119); assay: Isothermal Titration Calorimetry (ITC); conditions: pH 7.5; 15 °C
Experimental: as §1

[3] = target: [Pyruvate dehydrogenase (acetyl-transferring)] kinase isozyme 4, mitochondrial (Homo sapiens, UniProt Q16654); assay: PDK Inhibition Assay; conditions: pH 7.5; 25 °C
Chain of [Pyruvate dehydrogenase (acetyl-transferring)] kinase isozyme 4, mitochondrial (Q16654 whole entry): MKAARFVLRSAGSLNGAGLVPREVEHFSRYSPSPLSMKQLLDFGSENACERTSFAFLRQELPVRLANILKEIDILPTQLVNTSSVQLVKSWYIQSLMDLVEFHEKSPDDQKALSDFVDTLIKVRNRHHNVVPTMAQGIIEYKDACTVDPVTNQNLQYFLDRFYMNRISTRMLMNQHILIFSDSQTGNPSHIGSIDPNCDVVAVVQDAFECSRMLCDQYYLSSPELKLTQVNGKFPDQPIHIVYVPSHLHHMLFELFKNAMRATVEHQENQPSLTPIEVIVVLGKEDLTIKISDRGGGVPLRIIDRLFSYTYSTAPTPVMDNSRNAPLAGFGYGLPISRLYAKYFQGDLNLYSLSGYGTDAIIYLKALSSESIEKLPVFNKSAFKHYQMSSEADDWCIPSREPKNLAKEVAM

[4] = target: T2, [Pyruvate dehydrogenase (acetyl-transferring)] kinase isozyme 2, mitochondrial; assay: PDK Inhibition Assay; conditions: pH 7.5; 25 °C

SMILES	Kd [1] [µM]	Kd [2] [µM]	IC50 [3] [µM]	IC50 [4] [µM]
Oc1ccc(-c2nnc(S)n2-c2cccc3ccccc23)c(O)c1 [Resorcinol analog, 1]	0.025	6.76	0.28	3.82
O=C(O)C(Cl)Cl [DCA]			80	183
